Format in all cases: cell-based
For data set [1], the target named is T1, hLPAR1 (human lysophosphatidic acid receptor 1) (Homo sapiens, UniProt Q92633).
T1 construct: expressed in transfected cells
The data set is described as follows: FLIPR intracellular calcium assay, hLPAR1 expressed in CHO-K1 cells. The following applies: antagonism of 1 μM LPA-induced calcium increase, CHO-K1 cells expressing hLPAR1; read-out: LPAR1 IC50. As to the method: The antagonist property of the compounds disclosed herein was determined using the FLIPR (fluorescence imaging plate reader) method, wherein the compounds are inhibitors for the intracellular calcium increase induced by activation of hLPAR1 (human lysophosphatidic acid receptor 1, accession No. NM_001401.4) expressed in CHO-K1 cells (Chinese hamster ovary cells K1, ATCC).
CHO-K1 cells stably expressing hLPAR1 were cultured in F-12 medium containing 10% FBS (fetal bovine serum, Gibco, 10099-141), 1% penicillin-streptomycin (Gibco, 15140-122) and 0.4 mg/mL hygromycin B (Gibco, 10687010) in a cell incubator (37° C., […]). During 18-24 h prior to the FLIPR experiment, cells at 250,000 cells/mL were seeded into a 96-well plate (25,000 cells/well) and incubated overnight in the cell incubator. On the day of the experiment, the medium was discarded and the cells were washed in a FLIPR buffer (0.3 mL of probenecid (Thermo, P36400), 0.6 mL of 1 M HEPES (Invitrogen, 15630080) and 29.1 mL of HBSS (Invitrogen, 14065056) per 30 mL of buffer). Each well was added with 75 μL of 1 mM Fluo-4 AM fluorescent dye (Thermo, F14202) and then the cells were subjected to dye-loading incubation at 37° C. for 1.0 h. The 96-well plate was then washed once with buffer, added with a buffer containing a test compound or vehicle at 50 μL per well and then incubated for 30 min at room temperature. The cell plate was then placed in the FLIPR for baseline fluorescence measurements (excitation at 485 nm and emission at 525-535 nm). An agonist (oleoyl-L-α-lysophosphatidic acid sodium salt (Sigma, L7260) at a final concentration of 1 μM) or a vehicle (ultrapure water) was then added at 50 μL/well, fluorescence values were measured for 2 min at 1-second intervals, and finally the output fluorescence counts were analyzed.

The test system of data set [2] is A2058 (human melanoma cells). The data set is described as follows: A2058 cell scratch assay (cell migration inhibition). The following applies: A2058 scratch area 0 h vs 24 h, 10 μM LPA, read-out: Cell migration inhibition rate. The method, then:
The activity of the compounds disclosed herein at the cell level in vitro is evaluated by A2058 (human melanoma cells, Beina Bio, BNCC341099) cell scratch assay. The inhibitory activity of the compounds against LPAR1 can be reflected by inhibition of cell scratch healing.
A2058 cells in a T75 cm^2 cell culture flask were digested and gently pipetted into single cells, adjusted to a cell density of 4×10^5 cells/mL, and then seeded into a 24-well plate. After the cell confluence reached 80%, the cell culture plate was taken out and the original medium was discarded. Serum-free medium was then added, and the cells were starved overnight in an incubator (37° C., 5% CO2). The cell culture plate was then taken out, and cell scratches were made along the diameter of the wells using a 200 μL pipette tip. The cell culture plate was then added with 500 μL of serum-free medium and then shaken gently to wash away the residual cells on the scratched surface, and this was repeated twice. The medium was discarded and 500 μL of 1% FBS medium containing the compound was then added, and the mixture was incubated at 37° C. for 30 min. […] Olympus CKX53 was used to observe the scratches, and MShot image analysis system was used to take pictures and measure the scratch area at 0 h. Then the cell culture plate was incubated in the incubator (37° C., 5% CO2). 24 h later, the scratches were observed again with Olympus CKX53, and MShot image analysis system was used to take pictures and measure the scratch area at 24 h. Cell migration inhibition rate was calculated according to the following formula: […]

Data set [3] can be described thus: In vitro cytotoxicity assay in HepG2 cells, CCK-8 method. The following applies: human, 48 h incubation. As to the method: In vitro cytotoxicity assay for the compounds disclosed herein was performed in HepG2 cells using the CCK-8 method. HepG2 cells (Beina Bio) in the logarithmic growth phase were collected, the concentration of cell suspension was adjusted, and then the cells were plated on a 96-well cell culture plate at 50,000 cells/well. • The cells were then incubated overnight in a cell incubator (5% CO2, 37° C.), and after 80-90% cell confluence was achieved, test compounds or vehicle (DMSO) at various concentration gradients were added after medium change. The resulting mixture was incubated in the cell incubator (5% CO2, 37° C.) for 48 h. After the treatment, the medium in the plate was discarded. The plate was washed twice with PBS, added with CCK-8 working solution (Beyotime) at 100 μL per well, and then incubated at 37° C. for 1.5 h in the dark. Absorbance at OD450nm was measured for each well on a microplate reader, and CC50 value of each compound was analyzed and calculated.
For orientation: Formazan colour is commonly taken as a measure of viable cells.

Among the data in patent publication US12378204B2, “Triazole compounds and preparation method therefor and use thereof” (WUHAN LL SCIENCE AND TECHNOLOGY DEVELOPMENT CO., LTD., priority 2019, dated 2025) are IC50, inhibition and CC50 values, retold here.

T1 sequence (Q92633 whole entry): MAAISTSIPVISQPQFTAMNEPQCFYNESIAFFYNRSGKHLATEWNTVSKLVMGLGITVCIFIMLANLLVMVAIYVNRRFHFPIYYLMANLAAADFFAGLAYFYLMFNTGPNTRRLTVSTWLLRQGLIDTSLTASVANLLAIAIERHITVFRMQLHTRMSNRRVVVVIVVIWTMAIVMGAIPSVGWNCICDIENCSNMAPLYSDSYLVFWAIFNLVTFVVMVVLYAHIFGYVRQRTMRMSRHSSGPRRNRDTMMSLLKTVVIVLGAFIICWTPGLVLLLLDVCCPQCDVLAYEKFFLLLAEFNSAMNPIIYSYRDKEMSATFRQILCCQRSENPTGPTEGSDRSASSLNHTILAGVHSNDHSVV

Broadly, the IC50 is the concentration that inhibits the measured activity by half. Usually CC50 stands for the concentration giving 50% cytotoxicity. Low values mean greater toxicity to the cells, high ones lower toxicity to the cells. Turning to `CN(C(=O)CCc1nnn(C)c1-c1ccc(O[C@H]2CCC[C@H](C(=O)O)C2)c(C(F)(F)F)n1)C1CCCC1` (racemic) [Compound 27-B, (+/−)-(1S,3S)-3-((6-(4-(3-(cyclopentyl(methyl)amino)-3-carbonylpropyl)-1-methyl-1H-1,2,3-triazol-5-yl)-2-(trifluoromethyl)pyridin-3-yl)oxo)cyclohexane-1-carboxylic acid], the IC50 in data set [1] was in the range of 300 to 10000 nM. The inhibition in data set [2] lay within 0 to 30%. In data set [3], this compound yielded a half-maximal cytotoxic concentration (CC50) at 48 h greater than 200000 nM.
Taken in the same sequence, the figures for `Cn1nnc(-c2ccc(O[C@H]3CCC[C@H](C(=O)O)C3)c(C(F)(F)F)n2)c1CNC(=O)OC1CCCC1` (racemic) [Compound 28, (+/−)-(1S,3S)-3-((6-(5-((((cyclopentyloxy)carbonyl)amino)methyl)-1-methyl-1H-1,2,3-triazol-4-yl)-2-(trifluoromethyl)pyridin-3-yl)oxo)cyclohexane-1-carboxylic acid] were 50 to 300 nM, 50 to 70% and greater than 200000 nM.
For `CN(C(=O)NCc1c(-c2ccc(O[C@H]3CCC[C@H](C(=O)O)C3)cc2)nnn1C)C1CCCC1` (racemic) [Compound 30, (+/−)-(1S,3S)-3-(4-(5-((3-cyclopentyl-3-methylureido)methyl)-1-methyl-1H-1,2,3-triazol-4-yl)phenoxy)cyclohexane-1-carboxylic acid] the same measures were 50 to 300 nM, 30 to 50% and greater than 200000 nM.
Taken in the same sequence, the figures for `Cn1nnc(-c2ccc(O[C@H]3CCC[C@H](C(=O)O)C3)cc2)c1CNC(=O)Cc1ccccc1` [Compound 4, (1S,3S)-3-((4-(5-(2-N-phenylacetamido))-1-methyl-1H-1,2,3-triazol-4-yl)-phenoxy)cyclohexane-1-carboxylic acid] were 50 to 300 nM, 30 to 50% and greater than 200000 nM.
On to `Cn1nnc(-c2ccc(O[C@H]3CCC[C@H](C(=O)O)C3)cc2)c1-c1cn(Cc2ccccc2)c(=O)o1` [Compound 8], for which, in data set [1], the IC50 lay within 50 to 300 nM. Besides, the inhibition in data set [2] lay within 0 to 30%. In addition, the half-maximal cytotoxic concentration (CC50) at 48 h in data set [3] was greater than 200000 nM.
Taken in the same sequence, the figures for `Cn1nnc(-c2ccc(O[C@H]3CCC[C@H](C(=O)O)C3)cc2)c1C1CN(Cc2ccccc2)C(=O)O1` (stereo partly drawn) [Compound 9, (1S,3S)-3-(4-(5-(3-benzyl-2-carbonyloxazolidin-5-yl)-1-methyl-1H-1,2,3-triazol-4-yl)phenoxy)cyclohexane-1-carboxylic acid] were 50 to 300 nM, 30 to 50% and greater than 200000 nM.
For `CN(Cc1ccccc1)C(=O)OCc1c(-c2ccc(O/C=C/C(=O)O)cc2)nnn1C` [Compound 10, (E)-3-(4-(5-(((benzyl(methyl)carbamoyl)oxo)methyl)-1-methyl-1H-1,2,3-triazol-4-yl)phenoxy)acrylic acid] the same measures were 50 to 300 nM, 30 to 50% and greater than 200000 nM.
As for `CN(Cc1ccccc1)C(=O)OCc1c(-c2ccc(OCCC(=O)O)cc2)nnn1C` [Compound 11, 3-(4-(5-(((benzyl(methyl)carbamoyl)oxo)methyl)-1-methyl-1H-1,2,3-triazol-4-yl)phenoxy)propionic acid], in data set [1], the IC50 lay in the range of 50 to 300 nM. In data set [2], the inhibition lay within 0 to 30%. In addition, the CC50 at 48 h in data set [3] is greater than 200000 nM.
For `CN(Cc1ccccc1)C(=O)OCc1c(-c2ccc(N[C@H]3CCC[C@H](C(=O)O)C3)cc2)nnn1C` [Compound 13, 3-((4-(5-(((benzyl(methyl)carbamoyl)oxo)methyl)-1-methyl-1H-1,2,3-triazol-4-yl)phenyl)amino)cyc lohexanecarboxylic acid], the IC50 in data set [1] was in the range of 50 to 300 nM. Besides, the inhibition in data set [2] was 0 to 30%. For the same compound, in data set [3], the CC50 at 48 h is greater than 200000 nM.
